From ChEMBL document CHEMBL5136974, “VHL-based PROTACs as potential therapeutic agents: Recent progress and perspectives” (Eur J Med Chem, 2022)

Experiments:
[1] = Inhibition of BRAF mutant (unknown origin); parameters: species or system Homo sapiens
[2] = target: Serine/threonine-protein kinase B-raf (Homo sapiens) (UniProt P15056); test: Inhibition of BRAF mutant (unknown origin) relative to control
MV4-11 = test: Antiproliferative activity against human MV4-11 cells; type: functional, cell-based
MOLM-14 = test: Antiproliferative activity against human MOLM-14 cells; type: functional, cell-based
[3] = target: Dihydroorotate dehydrogenase (quinone), mitochondrial (Homo sapiens, UniProt Q02127); test: Inhibition of DHODH (unknown origin)
[4] = target: von Hippel-Lindau disease tumor suppressor/Oxysterols receptor LXR-beta (Homo sapiens, UniProt P40337+P55055); test: Protac activity at VHL/LXR (unknown origin) by TR-FRET assay
[5] = target: T1, von Hippel-Lindau disease tumor suppressor/Serine/threonine-protein kinase Sgk3 (Homo sapiens) (UniProt Q96BR1+P40337); test: Protac activity at VHL/SGK3 in human HEK293 cells at […] measured within 8 hrs relative to control; type: cell-based
[6] = target: T1, von Hippel-Lindau disease tumor suppressor/Serine/threonine-protein kinase Sgk3 (Homo sapiens); test: Protac activity at VHL/SGK3 in human HEK293 cells at […] measured within 2 hrs relative to control; type: cell-based
MCF7 [7] = test: Antiproliferative activity against human MCF7 cells; type: functional, cell-based
[8] = target: T2, von Hippel-Lindau disease tumor suppressor/Estrogen receptor (Homo sapiens, UniProt P03372+P40337); test: Protac activity at VHL/ER (unknown origin) assessed as degradation of ER relative to control
Target sequence in this assay (P03372 whole entry, looked up): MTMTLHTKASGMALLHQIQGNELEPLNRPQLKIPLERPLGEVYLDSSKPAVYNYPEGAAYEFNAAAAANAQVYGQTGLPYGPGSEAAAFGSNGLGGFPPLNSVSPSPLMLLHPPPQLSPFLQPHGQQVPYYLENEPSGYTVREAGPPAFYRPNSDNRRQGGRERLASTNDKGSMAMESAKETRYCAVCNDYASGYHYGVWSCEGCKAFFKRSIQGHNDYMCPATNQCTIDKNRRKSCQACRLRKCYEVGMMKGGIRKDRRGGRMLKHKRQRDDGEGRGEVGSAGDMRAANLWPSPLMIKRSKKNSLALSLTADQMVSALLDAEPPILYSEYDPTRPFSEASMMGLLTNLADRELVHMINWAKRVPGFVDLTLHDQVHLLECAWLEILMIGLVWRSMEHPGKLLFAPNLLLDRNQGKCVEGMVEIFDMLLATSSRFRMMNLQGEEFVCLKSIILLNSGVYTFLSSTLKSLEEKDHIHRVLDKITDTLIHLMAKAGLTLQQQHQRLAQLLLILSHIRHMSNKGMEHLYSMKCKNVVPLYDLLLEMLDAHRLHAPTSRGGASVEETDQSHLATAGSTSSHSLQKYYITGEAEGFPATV
Target sequence in this assay (P40337 whole entry, looked up): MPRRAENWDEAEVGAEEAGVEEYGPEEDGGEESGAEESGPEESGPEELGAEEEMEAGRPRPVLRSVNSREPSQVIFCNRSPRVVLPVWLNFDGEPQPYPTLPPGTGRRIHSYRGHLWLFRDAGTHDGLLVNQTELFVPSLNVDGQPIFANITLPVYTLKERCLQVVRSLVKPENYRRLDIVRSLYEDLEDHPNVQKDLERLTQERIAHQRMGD

[9] = target: T2, von Hippel-Lindau disease tumor suppressor/Estrogen receptor; test: Protac activity at VHL/ER (unknown origin) assessed as degradation of ER
Target sequence in this assay (P03372 whole entry): as the sequence (P03372 whole entry, looked up) above
Target sequence in this assay (P40337 whole entry): as the sequence (P40337 whole entry, looked up) above

MCF7 [10] = test: Antiproliferative activity against human MCF7 cells relative to control; type: functional
[11] = target: T3, Receptor-interacting serine/threonine-protein kinase 2 (Homo sapiens, UniProt O43353); test: Degradation of RIPK2 (unknown origin)
[12] = target: T3, Receptor-interacting serine/threonine-protein kinase 2; test: Degradation of RIPK2 (unknown origin) at more than 10 nM relative to control
[13] = target: T4, von Hippel-Lindau disease tumor suppressor/Androgen receptor (Homo sapiens, UniProt P10275+P40337); test: Protac activity at VHL/androgen receptor (unknown origin) assessed as degradation of androgen receptor; type: protein assay
[14] = target: T4, von Hippel-Lindau disease tumor suppressor/Androgen receptor; test: Protac activity at VHL/full length androgen receptor (unknown origin) assessed as degradation of androgen receptor
SK-BR-3 = test: Antiproliferative activity against human SK-BR-3 cells; type: functional, cell-based
[15] = target: T5, von Hippel-Lindau disease tumor suppressor/Epidermal growth factor receptor (Homo sapiens, UniProt P00533+P40337); test: Protac activity against VHL/EGFR in human OVCAR-8 cells assessed as degradation of EGFR; type: cell-based
[16] = target: T5, von Hippel-Lindau disease tumor suppressor/Epidermal growth factor receptor; test: Protac activity against VHL/EGFR in human OVCAR-8 cells assessed as degradation of EGFR relative to control; type: cell-based
[17] = tested on: von Hippel-Lindau disease tumor suppressor/Epidermal growth factor receptor (Homo sapiens), P00533+P40337 [L858R,T790M]; test: Protac activity against VHL/geftinib-resistant EGFR L858R/T790M double mutant in human H1975 cells relative to control; type: cell-based; settings: NCI-H1975
[18] = tested on: von Hippel-Lindau disease tumor suppressor/Epidermal growth factor receptor (Homo sapiens), P00533+P40337 [L858R]; test: Protac activity against VHL/EGFR L858R mutant in human […] cells relative to control; type: cell-based
[19] = target: T5, von Hippel-Lindau disease tumor suppressor/Epidermal growth factor receptor; test: Protac activity against VHL/EGFR deletion 19 mutant in human HCC827 cells; type: cell-based
[20] = target: von Hippel-Lindau disease tumor suppressor/Epidermal growth factor receptor (Homo sapiens, UniProt P00533+P40337, L858R); test: Protac activity against VHL/EGFR L858R mutant in human […] cells; type: cell-based
[21] = tested on: von Hippel-Lindau disease tumor suppressor/Epidermal growth factor receptor (Homo sapiens), P00533+P40337 [UNDEFINED MUTATION]; test: Protac activity against VHL/EGFR deletion 19 mutant in human HCC827 cells relative to control; type: cell-based
SK-MEL-28 = test: Antiproliferative activity against human SK-MEL-28 cells; type: functional, cell-based
HT-29 = test: Antiproliferative activity against human HT-29 cells; type: functional, cell-based
[22] = target: von Hippel-Lindau disease tumor suppressor/3-hydroxy-3-methylglutaryl-coenzyme A reductase (Homo sapiens, UniProt P04035+P40337); test: Protac activity at VHL/HMGCR in Insig-silenced human HepG2 cells; type: cell-based
[23] = target: von Hippel-Lindau disease tumor suppressor/Focal adhesion kinase 1 (Homo sapiens) (UniProt Q05397+P40337); test: Protac activity at VHL/FAK in serum-free treated human PC-3 cells assessed as degradation of FAK measured after 24 hrs relative to control; type: cell-based
Polycomb protein EED = Polycomb protein EED (Homo sapiens, UniProt O75530); test: Binding affinity to EED (unknown origin) assessed as dissociation constant
[24] = Inhibition of PRC2 (unknown origin); parameters: species or system Homo sapiens
[25] = target: T6, von Hippel-Lindau disease tumor suppressor/Cyclin-dependent kinase 6 (Homo sapiens, UniProt Q00534+P40337); test: Protac activity at VHL/CDK6 in human MM1.S cells assessed as degradation of CDK6 at 100 nM relative to control; type: cell-based
[26] = target: von Hippel-Lindau disease tumor suppressor/Cyclin-dependent kinase 4 (Homo sapiens, UniProt P11802+P40337); test: Protac activity at VHL/CDK4 in human MM1.S cells assessed as degradation of CDK4 measured after 16 hrs; type: cell-based
[27] = target: T6, von Hippel-Lindau disease tumor suppressor/Cyclin-dependent kinase 6; test: Protac activity at VHL/CDK6 in human MM1.S cells assessed as degradation of CDK6 measured after 16 hrs; type: cell-based
[28] = target: ALK tyrosine kinase receptor (Homo sapiens, UniProt Q9UM73); test: Inhibition of ALK (unknown origin) incubated for 1 hr by HTRF assay
[29] = target: NPM/ALK (Nucleophosmin/ALK tyrosine kinase receptor) (Homo sapiens) (UniProt Q9UM73+P06748); test: Inhibition of NPM-ALK in human SU-DHL-1 cells at […] relative to control; type: cell-based
[30] = target: von Hippel-Lindau disease tumor suppressor/GTPase KRas (Homo sapiens, UniProt P01116+P40337, G12C); test: Protac activity at VHL/KRAS G12C mutant (unknown origin); type: protein assay

T4 sequence (P10275 whole entry): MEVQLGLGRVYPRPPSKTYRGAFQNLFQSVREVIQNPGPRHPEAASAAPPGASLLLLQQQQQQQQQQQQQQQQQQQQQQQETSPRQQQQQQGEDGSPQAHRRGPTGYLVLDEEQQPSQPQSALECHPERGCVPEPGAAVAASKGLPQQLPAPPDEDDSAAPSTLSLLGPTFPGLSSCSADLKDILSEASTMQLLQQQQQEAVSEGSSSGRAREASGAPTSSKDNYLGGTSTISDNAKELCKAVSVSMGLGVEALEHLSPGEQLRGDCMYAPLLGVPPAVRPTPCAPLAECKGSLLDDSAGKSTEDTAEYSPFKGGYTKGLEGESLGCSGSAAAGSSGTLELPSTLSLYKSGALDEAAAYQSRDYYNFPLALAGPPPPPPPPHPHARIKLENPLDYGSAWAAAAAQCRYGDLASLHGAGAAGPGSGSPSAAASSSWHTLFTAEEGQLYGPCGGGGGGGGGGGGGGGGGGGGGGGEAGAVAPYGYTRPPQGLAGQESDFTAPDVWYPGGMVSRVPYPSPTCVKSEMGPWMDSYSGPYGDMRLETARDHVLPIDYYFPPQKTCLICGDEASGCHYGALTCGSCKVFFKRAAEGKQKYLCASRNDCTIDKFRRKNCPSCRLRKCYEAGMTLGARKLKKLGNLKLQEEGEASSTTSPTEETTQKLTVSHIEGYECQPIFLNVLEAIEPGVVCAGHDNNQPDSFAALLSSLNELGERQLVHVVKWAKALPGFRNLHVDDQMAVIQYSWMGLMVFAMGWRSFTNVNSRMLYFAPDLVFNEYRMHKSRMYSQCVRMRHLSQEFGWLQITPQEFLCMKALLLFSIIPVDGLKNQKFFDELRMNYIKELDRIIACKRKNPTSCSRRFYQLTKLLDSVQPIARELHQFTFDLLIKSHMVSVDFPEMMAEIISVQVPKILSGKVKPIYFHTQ
T4 sequence (P40337 whole entry): as the sequence (P40337 whole entry, looked up) above
T3 sequence (O43353 whole entry): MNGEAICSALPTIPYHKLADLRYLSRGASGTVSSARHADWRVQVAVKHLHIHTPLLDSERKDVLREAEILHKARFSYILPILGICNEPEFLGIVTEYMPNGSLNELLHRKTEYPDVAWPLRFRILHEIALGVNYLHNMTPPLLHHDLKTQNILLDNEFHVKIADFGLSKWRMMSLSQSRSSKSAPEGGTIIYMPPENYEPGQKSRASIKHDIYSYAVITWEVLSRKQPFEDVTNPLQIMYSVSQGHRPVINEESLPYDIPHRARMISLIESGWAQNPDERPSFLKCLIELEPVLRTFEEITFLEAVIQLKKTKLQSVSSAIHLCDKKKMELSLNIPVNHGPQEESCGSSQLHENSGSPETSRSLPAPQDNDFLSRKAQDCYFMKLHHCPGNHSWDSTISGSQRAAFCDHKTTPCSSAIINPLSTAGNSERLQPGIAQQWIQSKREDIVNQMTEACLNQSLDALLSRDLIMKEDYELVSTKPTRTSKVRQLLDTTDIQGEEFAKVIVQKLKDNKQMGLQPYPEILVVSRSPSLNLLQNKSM
von Hippel-Lindau disease tumor suppressor/Oxysterols receptor LXR-beta, sequence (P55055 whole entry): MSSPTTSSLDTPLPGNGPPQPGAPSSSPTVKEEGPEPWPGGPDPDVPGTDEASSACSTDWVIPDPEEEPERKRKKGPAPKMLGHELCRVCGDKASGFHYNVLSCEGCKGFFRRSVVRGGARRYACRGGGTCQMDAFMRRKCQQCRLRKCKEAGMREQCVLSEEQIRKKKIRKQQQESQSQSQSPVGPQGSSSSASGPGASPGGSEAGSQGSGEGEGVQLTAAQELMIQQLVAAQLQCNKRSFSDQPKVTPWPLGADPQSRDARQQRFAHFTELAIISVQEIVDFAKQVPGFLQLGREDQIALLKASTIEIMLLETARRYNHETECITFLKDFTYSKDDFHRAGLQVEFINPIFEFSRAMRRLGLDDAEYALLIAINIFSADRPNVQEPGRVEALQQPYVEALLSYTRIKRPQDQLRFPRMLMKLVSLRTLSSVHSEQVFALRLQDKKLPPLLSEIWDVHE
von Hippel-Lindau disease tumor suppressor/Oxysterols receptor LXR-beta, sequence (P40337 whole entry): as the sequence (P40337 whole entry, looked up) above
Polycomb protein EED, sequence (O75530 whole entry): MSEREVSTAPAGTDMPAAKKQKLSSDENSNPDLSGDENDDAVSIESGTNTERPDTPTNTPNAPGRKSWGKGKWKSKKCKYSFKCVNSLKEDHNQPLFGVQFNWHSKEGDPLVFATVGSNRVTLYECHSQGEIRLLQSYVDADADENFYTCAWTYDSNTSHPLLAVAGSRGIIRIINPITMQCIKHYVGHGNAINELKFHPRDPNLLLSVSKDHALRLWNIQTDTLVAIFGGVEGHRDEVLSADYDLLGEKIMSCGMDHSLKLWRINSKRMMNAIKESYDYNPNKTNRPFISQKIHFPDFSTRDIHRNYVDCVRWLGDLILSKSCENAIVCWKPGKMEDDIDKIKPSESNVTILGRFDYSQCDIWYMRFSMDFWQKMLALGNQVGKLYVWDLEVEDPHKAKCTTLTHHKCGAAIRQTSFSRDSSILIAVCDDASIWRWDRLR
Dihydroorotate dehydrogenase (quinone), mitochondrial, sequence (Q02127 whole entry): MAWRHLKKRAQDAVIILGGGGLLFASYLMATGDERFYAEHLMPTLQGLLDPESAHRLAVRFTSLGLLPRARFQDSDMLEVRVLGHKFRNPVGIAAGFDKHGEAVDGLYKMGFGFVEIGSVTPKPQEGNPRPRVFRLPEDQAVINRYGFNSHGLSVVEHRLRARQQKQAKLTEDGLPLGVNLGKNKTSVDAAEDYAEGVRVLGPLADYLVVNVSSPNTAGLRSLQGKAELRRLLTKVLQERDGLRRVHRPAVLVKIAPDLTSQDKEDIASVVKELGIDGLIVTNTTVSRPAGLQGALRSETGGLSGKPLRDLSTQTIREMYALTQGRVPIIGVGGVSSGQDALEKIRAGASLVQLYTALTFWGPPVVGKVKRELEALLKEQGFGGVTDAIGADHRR

CCCS(=O)(=O)Nc1ccc(F)c(C(=O)c2c[nH]c3ncc(-c4ccc(N5CCN(CC(=O)N[C@H](C(=O)N6C[C@H](O)C[C@H]6C(=O)NCc6ccc(-c7scnc7C)cc6)C(C)(C)C)CC5)cc4)cc23)c1F
IC50 [1]: 6.8 nM
Emax [2]: > 95%

Cc1ncsc1-c1ccc(CNC(=O)[C@@H]2C[C@@H](O)CN2C(=O)[C@@H](NC(=O)CCOCCOCCOc2ccc3c(c2)sc2nc(-c4ccc(NC(=O)Nc5cc(C(C)(C)C)on5)cc4)cn23)C(C)(C)C)cc1
IC50 (MV4-11): 0.6 nM
IC50 (MOLM-14): 0.6 nM

COC(=O)c1c(C)c(-c2ccc(-c3ccc(OCCOCCOCCOC(=O)N[C@H](C(=O)N4C[C@H](O)C[C@H]4C(=O)NCc4ccc(-c5scnc5C)cc4)C(C)(C)C)cc3)cc2)nc2ccc(F)cc12
IC50 [3]: > 200000 nM

O=C(O)Cc1cccc(OCCCN(Cc2cccc(C(F)(F)F)c2Cl)CC(c2ccccc2)c2ccccc2)c1
EC50 [4]: 20 nM

Cc1ccc(F)c(S(=O)(=O)Nc2ccc(-c3nc(OC[C@H]4CN(CCCCCCOCCOCCOCC(=O)N[C@H](C(=O)N5C[C@H](O)C[C@H]5C(=O)NCc5ccc(-c6scnc6C)cc5)C(C)(C)C)CCO4)c4cn[nH]c4n3)cc2)c1
Activity [5]: 80%
Activity [6]: 50%

Cc1ncsc1-c1ccc([C@H](C)NC(=O)[C@@H]2C[C@@H](O)CN2C(=O)[C@@H](NC(=O)CCCCOc2ccc(CCNC(=O)c3ccc(C(=O)c4c(-c5ccc(O)cc5)sc5cc(O)ccc45)cc3)cc2)C(C)(C)C)cc1
IC50 (MCF7 [7]): 13.2 nM
Emax [8]: 98%
DC50 [9]: 1.1 nM
Imax (MCF7 [10]): 69%

Cc1ncsc1-c1ccc(CNC(=O)[C@@H]2C[C@@H](O)CN2C(=O)[C@@H](NC(=O)COCCOCCOCCOCCOc2cc3nccc(Nc4ccc5scnc5c4)c3cc2S(=O)(=O)C(C)(C)C)C(C)(C)C)cc1
DC50 [11]: 1.4 nM
Emax [12]: > 95%

Cc1ncsc1-c1ccc([C@H](C)NC(=O)[C@@H]2C[C@@H](O)CN2C(=O)[C@@H](NC(=O)CCCCCNC(=O)COc2ccccc2-c2csc(N3CCOCC3)n2)C(C)(C)C)cc1
DC50 [13]: 370 nM
DC50 [14]: 2000 nM

Cc1ncsc1-c1ccc(CNC(=O)[C@@H]2C[C@@H](O)CN2C(=O)[C@@H](NC(=O)COCCOCCOc2ccc(-c3ccc4ncnc(Nc5ccc(OCc6cccc(F)c6)c(Cl)c5)c4c3)cc2)C(C)(C)C)cc1
IC50 (SK-BR-3): 102 nM
DC50 [15]: 39.2 nM
Emax [16]: 97.6%

Cc1ncsc1-c1ccc(CNC(=O)[C@@H]2C[C@@H](O)CN2C(=O)[C@@H](NC(=O)CCCCCOCCCCOCCCCOc2cc3ncnc(Nc4ccc(F)c(Cl)c4)c3cc2NC(=O)/C=C/CN(C)C)C(C)(C)C)cc1
Emax [17]: 79.1%

COc1cc2ncnc(Nc3ccc(F)c(Cl)c3)c2cc1OCCCCCOCCOCCC(=O)N[C@H](C(=O)N1C[C@H](O)C[C@H]1C(=O)NCc1ccc(-c2scnc2C)cc1)C(C)(C)C
Emax [18]: 96.6%
DC50 [19]: 11.7 nM
DC50 [20]: 22.3 nM
Emax [21]: 98.9%

Cc1ncsc1-c1ccc([C@H](C)NC(=O)[C@@H]2C[C@@H](OC(=O)CCCCn3cc(CNC(=O)CC[C@H](NC(=O)c4ccc(NCc5cnc6nc(N)[nH]c(=O)c6n5)cc4)C(=O)O)nn3)CN2C(=O)[C@@H](NC(=O)CCCCCCCCCCNCCCONC(=O)c2ccc(F)c(F)c2Nc2ccc(I)cc2F)C(C)(C)C)cc1
IC50 (SK-MEL-28): 390 nM
IC50 (HT-29): 436 nM

Cc1ncsc1-c1ccc(CNC(=O)[C@@H]2C[C@@H](O)CN2C(=O)[C@@H](NC(=O)COCCOCCOCCOCCOCCNC(=O)Cc2cccc(OCCCN(Cc3cccc(C(F)(F)F)c3Cl)CC(c3ccccc3)c3ccccc3)c2)C(C)(C)C)cc1
EC50 [4]: 31 nM

Cc1ncsc1-c1ccc(CNC(=O)[C@@H]2C[C@@H](O)CN2C(=O)[C@@H](NC(=O)CCCCCCCCCCNC(=O)O[C@H]2C[C@@H](C)C=C3C=C[C@H](C)[C@H](CC[C@@H](O)C[C@@H](O)CC(=O)O)[C@H]32)C(C)(C)C)cc1
DC50 [22]: 120 nM

Cc1ncsc1-c1ccc(CNC(=O)[C@@H]2C[C@@H](O)CN2C(=O)[C@@H](NC(=O)CCOCCOc2ccc(Nc3ncc(C(F)(F)F)c(NCc4cccc(N(C)S(C)(=O)=O)c4)n3)cc2)C(C)(C)C)cc1
Emax [23]: 99%

Cc1ncsc1-c1ccc(CNC(=O)[C@@H]2C[C@@H](O)CN2C(=O)[C@@H](NC(=O)OCCOCCOCCOc2ccc(-c3ccc(-c4nc5ccc(F)cc5c(C(=O)O)c4C)cc3)cc2)C(C)(C)C)cc1
IC50 [3]: 93 nM

Cc1nc(CCC(=O)NCCCCC(=O)N[C@H](C(=O)N2C[C@H](O)C[C@H]2C(=O)NCc2ccc(-c3scnc3C)cc2)C(C)(C)C)ccc1-c1cnc(NCc2c(F)ccc3c2CCO3)n2cnnc12
Kd (Polycomb protein EED): 1 nM
pIC50 [24]: 8.1

CC(=O)c1c(C)c2cnc(Nc3ccc(N4CCN(CCOCCOCCOc5cc(-c6scnc6C)ccc5CNC(=O)[C@@H]5C[C@@H](O)CN5C(=O)[C@@H](NC(=O)C5(F)CC5)C(C)(C)C)CC4)cn3)nc2n(C2CCCC2)c1=O
Activity [25]: > 95%
DC50 [26]: 20 nM
DC50 [27]: 5.1 nM

Cc1nc(CCC(=O)NCCOc2ccc(OCC(=O)N[C@H](C(=O)N3C[C@H](O)C[C@H]3C(=O)NCc3ccc(-c4scnc4C)cc3)C(C)(C)C)cc2)ccc1-c1cnc(NCc2c(F)ccc3c2CCO3)n2cnnc12
Kd (Polycomb protein EED): 1 nM
pIC50 [24]: 8.1

Cc1cc(Nc2ncc(Cl)c(Nc3ccccc3S(=O)(=O)C(C)C)n2)c(OC(C)C)cc1C1CCN(C(=O)CCCC(=O)N[C@H](C(=O)N2C[C@H](O)C[C@H]2C(=O)NCc2ccc(-c3scnc3C)cc2)C(C)(C)C)CC1
IC50 [28]: 7 nM
inhibition [29]: 90%

C=C(F)C(=O)N1CCN(c2nc(OC[C@@H]3CCCN3CCCOCCC(=O)N[C@H](C(=O)N3C[C@H](O)C[C@H]3C(=O)NCc3ccc(-c4scnc4C)cc3)C(C)(C)C)nc3c2CCN(c2cccc4cccc(Cl)c24)C3)C[C@@H]1CC#N
DC50 [30]: 250 nM

Cc1ncsc1-c1ccc([C@H](C)NC(=O)[C@@H]2C[C@@H](O)CN2C(=O)[C@@H](NC(=O)CCCCOc2ccc(/C=N/NC(=O)c3ccc(C(=O)c4c(-c5ccc(O)cc5)sc5cc(O)ccc45)cc3)cc2)C(C)(C)C)cc1 (stereo in doubt)
Emax [8]: 95%
DC50 [9]: 10 nM
